The values below come from US20120016000A1, “METHOD TO ASSAY PHOSPHOLIPID AND TRIGLYCERIDE TRANSFER ACTIVITY OF MICROSOMAL TRIGLYCERIDE TRANSFER PROTEIN” (priority 2010, published 2012).

Data set [1] concerns the target T1, purified bovine liver MTP (Bos taurus, UniProt P55156).
T1 construct: purified bovine liver MTP; from tissue; host or cells: bovine liver
T1 sequence (P55156 19-887 limits assumed): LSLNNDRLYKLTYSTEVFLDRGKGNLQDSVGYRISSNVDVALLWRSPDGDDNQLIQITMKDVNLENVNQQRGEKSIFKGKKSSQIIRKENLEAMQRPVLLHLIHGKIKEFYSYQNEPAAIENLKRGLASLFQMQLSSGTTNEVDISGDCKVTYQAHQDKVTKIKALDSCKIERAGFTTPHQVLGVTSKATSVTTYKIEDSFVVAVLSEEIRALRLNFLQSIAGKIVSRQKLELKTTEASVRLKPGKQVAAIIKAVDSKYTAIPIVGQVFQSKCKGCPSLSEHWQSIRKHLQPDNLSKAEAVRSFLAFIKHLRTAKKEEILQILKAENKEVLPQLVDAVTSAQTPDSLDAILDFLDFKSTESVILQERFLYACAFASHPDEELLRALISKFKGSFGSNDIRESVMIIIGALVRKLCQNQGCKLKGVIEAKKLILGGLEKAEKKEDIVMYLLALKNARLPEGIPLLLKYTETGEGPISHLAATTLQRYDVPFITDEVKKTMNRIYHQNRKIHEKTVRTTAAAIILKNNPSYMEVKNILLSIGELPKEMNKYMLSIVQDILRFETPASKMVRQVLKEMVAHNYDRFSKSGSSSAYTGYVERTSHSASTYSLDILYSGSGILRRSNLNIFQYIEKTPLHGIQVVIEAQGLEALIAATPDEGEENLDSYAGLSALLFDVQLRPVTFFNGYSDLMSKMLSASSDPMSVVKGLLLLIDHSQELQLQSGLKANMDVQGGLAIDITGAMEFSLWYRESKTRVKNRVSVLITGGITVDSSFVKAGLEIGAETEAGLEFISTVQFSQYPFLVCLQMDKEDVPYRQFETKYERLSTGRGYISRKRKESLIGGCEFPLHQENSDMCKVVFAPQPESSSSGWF
T1 sequence (P05307 21-510 partner): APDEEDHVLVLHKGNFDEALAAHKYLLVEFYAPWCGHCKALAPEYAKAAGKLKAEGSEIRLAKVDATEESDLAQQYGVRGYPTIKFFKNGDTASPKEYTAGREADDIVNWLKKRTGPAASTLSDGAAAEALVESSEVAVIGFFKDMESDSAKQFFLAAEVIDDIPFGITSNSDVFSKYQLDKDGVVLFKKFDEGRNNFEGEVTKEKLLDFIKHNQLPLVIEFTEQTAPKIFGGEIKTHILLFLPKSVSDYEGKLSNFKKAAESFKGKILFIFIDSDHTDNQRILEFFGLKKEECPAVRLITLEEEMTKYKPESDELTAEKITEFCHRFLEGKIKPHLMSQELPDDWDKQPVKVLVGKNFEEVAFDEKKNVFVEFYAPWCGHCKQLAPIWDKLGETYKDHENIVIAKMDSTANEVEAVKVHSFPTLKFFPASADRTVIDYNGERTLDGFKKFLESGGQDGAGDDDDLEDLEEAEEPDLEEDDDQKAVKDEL
Nature of the data set: Fluorescence triglyceride (NBD-TG) transfer activity assay of MTP. The format is biochemical. The note with it: dose-dependent inhibition, FIG. 5A. The source says:
(§1) The present invention is directed to very selective, simple, rapid and sensitive fluorescence assays to measure triglyceride (NBD-TG) and phospholipid (NBD-PE) transfer by MTP. These assays have been modified and developed into a “mix and measure” format kit that is stable, user friendly, and consists of only two components: a master mix and purified MTP. The master mix contains all the ingredients necessary for MTP activity. In this assay, MTP transfers fluorescent lipids from donor to acceptor vesicles. Lipid fluorescence in these vesicles is mostly quenched. Unquenched fluorescence (˜0.05% of total fluorescence) is measured as background. During the transfer of fluorescent lipids by MTP, fluorescence is exposed to aqueous phase and detected by the Fluorimeter. These fluorescence measurements represent the amount being transferred. Inclusion of antagonist during these assays reduces increases in fluorescence and represents inhibition of the transfer activity. […]
(§2) Increasing amounts of DMSO (0-1%) had no significant effect on both triglyceride (FIG. 3A) and phospholipid (FIG. 3B) transfer activities of MTP. […] Evaluation of signal-to-noise ratio of assay across the entire 96-well plate: Fluorescence in the blank (n=48) and MTP (n=48) was used to determine the values of noise and signal, respectively. […]

Data set [2] deals with T1, purified bovine liver MTP. Nature of the data set: Fluorescence phospholipid (NBD-PE) transfer activity assay of MTP. The format is biochemical. As to conditions: dose-dependent inhibition, FIG. 5B.
Excerpt: as §1, §2

For data set [3] the following is noted: guinea pigs; cited from earlier work.
The conditions of data set [4]: in vivo; cited from earlier work.

Broadly, the IC50 is the concentration at which inhibition is half-maximal. Low values mean higher potency, high ones lower potency. As to `O=C(Nc1ccc2c(c1)CCN(Cc1ncn[nH]1)C2)c1ccccc1-c1ccc(C(F)(F)F)cc1` [CP-346086], the half-maximal inhibitory concentration (IC50) came out at 0.33 nM in data set [1] and 9.4 nM in data set [2]. As to `CCOC(=O)C(COC(=O)Cc1ccc(NC(=O)c2ccccc2-c2ccc(C(F)(F)F)cc2)c(C(=O)N(C)C)c1)(C(=O)OCC)c1ccccc1` [JTT-130], in data set [3], the hepatic triglyceride result is listed as “without increasing hepatic triglyceride”; the “plasma triglyceride and LDL cholesterol” value is “lower plasma triglyceride and LDL cholesterol”. In the case of `COc1cccc(C(=O)Nc2ccc3c(c2)CCN(C(=O)Oc2ccccc2)C3)c1-c1ccc(C(F)(F)F)cc1` [SLx-4090], the plasma lipids result in data set [4] is “lower plasma lipids”.
